Measurements: article PMC4862498, “PI4 Kinase Is a Prophylactic but Not Radical Curative Target in Plasmodium vivax-Type Malaria Parasites” (Antimicrobial Agents and Chemotherapy, 2016)
Entries after “also recorded” stand apart in the source; their conditions may differ.

Columns and labels:
[1] = parameters: species or system mice and monkeys; details: in vivo
Method: Details of in vivo PK studies of KDU691 and LMV599 in CD-1 mice and monkeys can be found in the supplemental material.
Pharmacokinetic analysis.
Mean values of compound concentrations in plasma and liver were obtained from three animals at each time point and plotted against time to generate concentration-time profiles. Pharmacokinetic parameters were determined using WinNonlin Professional, version 5.0.1 (Pharsight, California, USA), by non-compartmental modeling using software model 200 for oral dosing. The oral bioavailability (F) was calculated as the ratio between the area under the curve from 0 to infinity (AUCinf) following oral administration and the AUCinf following intravenous administration corrected for dose (F = AUCp.o. * dosei.v. / AUCi.v. * dosep.o.).
PK-PD relationship analysis.
The compound concentration that inhibited 50% of P. cynomolgi growth (IC50) was used to calculate the threshold (TRE = 3*IC50) and the PK-PD indices. The Cmax/TRE was defined as the ratio of peak plasma concentration (Cmax) to the threshold (3*IC50), the AUC0-24/TRE was defined as the ratio of area under the curve from 0 to 24 hours (AUC0-24) to the threshold, and the percent time over threshold (%T>TRE) was defined as the percentage of the 24 hour period during which the compound concentration exceeded the […]
Table S3: Monkey stratification for the in vivo testing of KDU691. […]

[2] = tested on: P. cynomolgi sporozoite-infected rhesus macaques; assay: Causal prophylaxis in P. cynomolgi sporozoite-infected rhesus macaques; assay type: in vivo, Plasmodium cynomolgi; details: 20 mg/kg oral for 5 days from day 0, 4 monkeys, follow-up until day 102 p.i.
Method: Sporozoites were harvested from P. cynomolgi-infected mosquitoes, washed with phosphate-buffered saline (PBS), and diluted to 100,000 sporozoites (spz)/ml in PBS. One-milliliter aliquots of sporozoites were prepared and injected into monkeys via intravenous (i.v.) injection.
Monkeys were treated according to the schedule shown in Table 1 (stratification of treatment groups is given in the supplemental material). During treatment, monkeys were weighed daily and received the compound via gavage, followed by gastric feeding (weight change during treatment is shown in Table S6 in the supplemental material). […]
Parasitemia was closely monitored by thin-film analysis. […] Thin-film slides were stained with 20% Giemsa stain, and at least 50 fields (±20,000 erythrocytes [RBCs]) were analyzed with a bright-field microscope (×1,200 magnification). […] From day 23 p.i., monkeys were monitored daily for relapses. The KDU691 radical-cure (group 691-RC) treatment and control groups were monitored until the first relapse. The LMV599 control (group 599-C), radical-cure (group 599-RC), and PQ radical-cure (group PQ-RC) treatment groups were monitored until the second relapse or until day 100 p.i. […]
The prophylaxis groups were monitored daily until day 22 p.i. From day 22 to day 45 p.i., they were monitored three times a week, and from day 45 to day 105 p.i. (100 days after treatment), they were monitored twice a week. […]

CNC(=O)c1ccc(-c2cnc3cnc(C(=O)N(C)c4ccc(Cl)cc4)cn23)cc1 [KDU691]
oral bioavailability [1]: 52-66% | causal prophylactic outcome (blood-stage parasitemia) [2]: fully protective; also recorded: completely effective; also recorded: eradicated all liver-stage parasites, including hypnozoites
